Measured values: article PMC9460506, “Polyphenol-Rich Date Palm Fruit Seed (Phoenix Dactylifera L.) Extract Inhibits Labile Iron, Enzyme, and Cancer Cell Activities, and DNA and Protein Damage” (Nutrients, 2022)
Values after ≈ are worked out from the molar mass of the structure shown.

Columns and labels:
Ferritin = test: Labile iron inhibition test (iron release from ferritin by superoxide); assay type: biochemical
Method: The tested mixture was irradiated with a fluorescent lamp at room temperature for 90 min. Labile iron was measured, as noted previously.

[1] = Ferric-reducing/antioxidant power (FRAP) test; details: tested 0.1 to 5 mg/mL
Method: The FRAP reagent proportions consisted of 1:1:10 (v/v/v) of TPTZ 10 mM solution in 40 mM HCl, FeCl3 20 mM, and acetate buffer pH 3.6, 0.3 M. Then, 1 mL of the tested sample was mixed with 2 mL of freshly prepared FRAP reagent. The mixtures were incubated for 30 min at 37 °C. The absorbance was conducted using a Varian CARY 50 Scan UV–VIS Spectrophotometer with a Cary 50 Microplate Reader Accessory (Varian, Inc., Walnut Creek, CA, USA), at 593 nm. Deionized water was used as a blank. FeSO4 was used for the calibration curve. The values of FRAP were expressed as µmol of Fe (II).

[2] = system: Bovine Serum Albumin (BSA)
Method: Bovine Serum Albumin (BSA) was oxidized by AAPH using a method outlined earlier [18]. […] The control sample was without AAPH.
Then the mixture was loaded and separated using SDS-PAGE 10% after reduction conditions for 5 min, at 100 °C. The free stained gels’ images were taken with a ChemiDoc MV gel documentation system (Bio-Rad, Hercules, CA, USA). The band intensity determined the protein damage amount for each band using Image Lab 4.1 Software version 6.1.0 (Bio-Rad, Hercules, CA, USA).

[3] = DPPH free radical-scavenging test; details: tested 0.1 to 5 mg/mL
Method: They were determined to be effective against 1,1-diphenyl-2, picrylhydrazyl radicals. The results of the study were compared with those of a previously reported method. […] The absorbance was conducted using a Varian CARY 50 Scan UV–VIS Spectrophotometer with a Cary 50 Microplate Reader Accessory (Varian, Inc., Walnut Creek, CA, USA).

[4] = Nitric oxide radical (NO) scavenging test (Griess reaction)
Method: In brief, 3 mL of the reaction mixture (2 mL of 10 mM sodium nitroprusside, 0.5 mL phosphate buffer saline, and 0.5 of tested samples). The mixture was incubated for 150 min at 25 °C. Then 0.5 mL of the mixture was mixed with 1 mL of (sulfanilic acid reagent: 0.33% in 20% glacial acetic acid). After 5 min, 1 mL of naphthyl ethylene diamine dihydrochloride 0.1% was added. After 30 min at room temperature, the absorbance was conducted using a Varian CARY 50 Scan UV–VIS Spectrophotometer with a Cary 50 Microplate Reader Accessory (Varian, Inc., Walnut Creek, CA, USA) at 540 nm. The nitrite percentage was determined by considering Equation 1 described above.

[5] = Total antioxidant activity (TAC, phosphomolybdate); details: tested 0.1-5 mg/mL
Method: In brief, 0.3 mL of a reagent composed of sodium phosphate 28 mM, sulphuric acid 0.6 M, and ammonium molybdate 4 mM were added to 0.1 mL tested samples and incubated at 95 °C for 90 min. After cooling, the mixture was measured at 695 nm using a Varian CARY 50 Scan UV–VIS Spectrophotometer with a Cary 50 Microplate Reader Accessory (Varian, Inc., Walnut Creek, CA, USA). A higher antioxidant capacity is correlated with a higher absorbance value.

SMILES | percent inhibition of iron release from ferritin (Ferritin; at 10 μg) [%] | percent inhibition of iron release from ferritin (Ferritin; at 50 μg) [%] | percent inhibition of iron release from ferritin (Ferritin; at 100 μg) [%] | IC50, Labile Iron (Ferritin; iron release from ferritin by superoxide) [mg/L] | Free Radical Inhibition Activity IC50, FRAP [1] [mg/L] | IC50 [2] [mg/L] | Free Radical Inhibition Activity IC50, DPPH [3] [mg/L] | scavenging capacity for NO ([4]; 0.5 mg/mL) [%] | scavenging capacity for NO ([4]; 1 mg/mL) [%] | scavenging capacity for NO ([4]; 3 mg/mL) [%] | scavenging capacity for NO ([4]; 5 mg/mL) [%] | scavenging capacity for NO ([4]; starting value (lowest concentration)) [%] | IC50, Nitric oxide ([4]; tested 0.1 to 5 mg/mL) [mg/L] | IC50, Total antioxidant Capacity [5] [mg/L]
O=C(O)c1cc(O)c(O)c(O)c1 [Gallic acid, gallic acid] | 50.68 ± 0.18 | 59.22 ± 0.81 | 68.55 ± 0.38 | 4.86 ± 0.23 (≈ 0.0286 mM) | – | – | – | – | – | – | – | – | – | –
C[C@@H]1O[C@@H](OC[C@H]2O[C@@H](Oc3c(-c4ccc(O)c(O)c4)oc4cc(O)cc(O)c4c3=O)[C@H](O)[C@@H](O)[C@@H]2O)[C@H](O)[C@H](O)[C@H]1O [Rutin] | 85.32 ± 0.56 | 90.30 ± 0.01 | 96.65 ± 0.01 | – | 533 ± 22.85 | – | – | – | – | – | – | – | – | –
Cc1c(C)c2c(c(C)c1O)CCC(C)(C(=O)O)O2 (centres unmarked) [Trolox] | 39.33 ± 0.54 | 84.79 ± 3.00 | 87.87 ± 1.87 | – | – | – | – | – | – | – | – | – | – | –
O=C1O[C@H]([C@@H](O)CO)C(O)=C1O [VC, vitamin C] | – | – | – | – | – | < 100 | 880 ± 12.89 | 40.92 | 29.57 | 55.12 | 56.55 | 59.10 | 2710 ± 65.98 (≈ 15.4 mM) | 3005.29 ± 427.80 (≈ 17.1 mM)
